Assays:
[1] = tested on: fibroblast cells in co-culture with cells isolated from primary human tumors; assay: Marker expression (IHC) in fibroblasts co-cultured with primary human tumor cells (colon, pancreatic, lung carcinoma, glioma, multiple myeloma); assay type: cell-based
Procedure: To check that the interaction of the human primary tumor cells with stromal cells, [human fibroblasts,] stimulates the secretion of substances of importance for survival and tumor progression, co-cultures were performed using stromal cells with human fibroblast-tumor cells obtained directly from primary human tumors.
On this occasion, in order to identify, using immunohistochemical techniques, the secretion of substances of importance for the survival and progression of tumors, the following antibodies were used: TGF-α (SAB4502953), TGF-β1 (SAB4502954), TGF-β2 (SAB4502956), TGF-β3 (SAB4502957), SPARC (HPA002989), MMP-3 (HPA007875), MMP-7 (SAB4501894), MMP-9 (SAB4501896), MMP-11 (SAB4501898) MMP-13 (SAB4501900) and MMP-14 (SAB4501901) using specific antibodies against them. All antibodies used were rabbit polyclonal antibodies obtained from Sigma-Aldrich and were used at a concentration of 1/1000 to achieve these immunohistochemical studies. All experiments were carried out sixfold.

[2] = tested on: human primary macrophages (PHM); assay: Marker expression (immunohistochemistry) in human primary macrophages with SP alone or with NK1 antagonists; assay type: cell-based; conditions: SP 1 μM + antagonist 1 μM; 48 h
Procedure: In this sense the next step was to analyze the effect exerted by the treatment with non-peptide NK1 antagonists in human primary macrophages (PHM) obtained and purified from pleural effusion samples obtained from men with chronic age range between 45 and 55 years. Briefly, the pleural fluid from chronic (rich in macrophages) was centrifuged.
After 48 hours of culture, cells were harvested and cellular paraffin blocks were constructed for immunohistochemical analysis (see Example 1). To analyze the expression of markers EGF, MMP-9, VEGF and IL-8 antibodies were used as follows: EGF (rabbit monoclonal antibody, anti-EGF; 07-1432. Merck-Millipore), MMP-9 (polyclonal rabbit anti-MMP-9: SAB4501896, Sigma-Aldrich), VEGF (mouse monoclonal anti-VEGF, GF25-100UG, Merck-Millipore) and TNF-α (mouse monoclonal anti-TNF-α, number MAB 1021 catalogue, obtained from Merck-Millipore). All of these antibodies were used at a concentration of 1/1000. System for labelling with a secondary antibody specific for the primary antibodies obtained from rabbit or mouse was used, as was necessary in each case, both the Envision (Dako). All experiments were carried out sixfold.

[3] = tested on: fibroblasts (PHF) cells co-cultured with human T lymphoma tumor (DERL-7); assay: Marker expression (IHC) in PHF co-cultured with DERL-7 tumor cells; assay type: cell-based; conditions: PHF co-cultured with DERL-7 + SP + NK1 antagonist
[4] = tested on: co-cultures of tumor cells-endothelial cells (C-12210); assay: Inhibition/survival in co-cultures of primary human tumor cells and endothelial cells; assay type: cell-based; conditions: survival in reference to control, SP 1 μM, Vestipitant 1 μM
Procedure: To check that the interaction of primary tumor cells extracted directly from human with human vascular endothelial cells, promotes the survival of both cell types, co-cultures were performed microvascular endothelial cells from juvenile foreskins (PromoCell GmbH, Sickingenstraβe 63/65, D-69126 Heidelberg, Germany; reference C-12210) with tumor cells obtained directly from primary human tumors.
A total of 6 wells containing tumor cells were used as control for survival. Another 6 wells containing tumor cells were cultured with addition of endothelial cells.
Subsequently, cells were embedded in paraffin for analysis by immunohistochemistry. In order to identify the different cell types and quantity of them [They were labelled with primary antibodies specific for human endothelial cells (anti-CD31), carcinoma cells (Anti-Cytokeratins Spread Spectrum), glioma (Anti-glial fibrillary acidic protein), fibrosarcoma and malignant fibrous histiocytoma (Anti-Smooth Muscle Actin), Ewing sarcoma (Anti-CD99), Melanoma (Anti-HMB45), leukemias and lymphomas (Anti-Common Antigen Leucitario) and myeloma (anti CD 138). All antibodies are distributed by Dako and were used at the same concentration which is supplied (supplied pre-diluted—“ready to use”).

[5] = tested on: fibroblasts of tumors produced by lung carcinoma non small cell human (HCC-44) cells; assay: Marker expression (IHC) in fibroblasts of tumor or peritumoral area, mouse model, HCC-44; assay type: in vivo; conditions: HCC-44 tumors in mice, 30 mg/kg/day oral, 7 days
Procedure: Subsequently, the expression in fibroblasts tumoral and peritumoral area of molecular markers associated with progression and maintenance of tumors: TGF-α, TGF-β1, TGF-β2, TGF-β3, MMP-7, MMP-11, MMP-14 were analyzed by immunohistochemistry.
Were injected with 2×10^7 cells tumors (corresponding, in each case to each of the tumor types as specified in Table 9) in 200 of PBS subcutaneously μl. […] Mice were randomized into two groups when the tumors reached a volume of 75 mm^3 One group was treated with non-peptide receptor antagonists NK1 and the other with placebo 200μ1. […] Tumors and samples of non-neoplastic stromal areas remote from the tumor were halved, formalin fixed (4%) and then were included in paraffin blocks for analysis by immunohistochemistry.
The expression on fibroblast cells obtained in the animal model was analyzed by immunohistochemistry, of the above markers: TGF-α, TGF-β1, TGF-β2, TGF-β3, MMP-7, MMP-1 1, MMP-14MP-14. […] This process was realized in mice treated with non-peptide antagonists of NK1 receptor and in untreated animals (control).

[6] = tested on: fibroblasts (PHF) co-cultured with tumor cells, ovarian carcinoma (EFO-27); assay: Marker expression (IHC) in PHF co-cultured with EFO-27 tumor cells; assay type: cell-based, human; conditions: co-culture with EFO-27; SP 1 μM + antagonist 1 μM; 48 h;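 also: values are the percentage of PHF fibroblasts positive for each marker, cultured in fresh plasma from a healthy human donor, each experiment run in six replicates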
Procedure: (§1) All cultures were maintained 48 hours, following which the same cells were included in paraffin blocks for subsequent analysis of the expression of different markers by immunohistochemistry (see Example 1). […] All experiments were carried out sixfold. Analyzed markers in fibroblast cells (stromal cells) were: TGF-α, TGF-β1, TGF-β2, TGF-β3, SPARC, MMP-3, MMP-7, MMP-9, MMP-11, MMP-13 and MMP-14.

[7] = tested on: fibroblasts (PHF) co-cultivated with tumor cell carcinoma of urinary bladder (5637); assay: Marker expression (IHC) in PHF co-cultured with 5637 tumor cells; assay type: cell-based, human; conditions: co-culture with 5637; SP 1 μM + antagonist 1 μM; 48 h
Procedure: as §1

polymorphonuclear cells = assay: Marker expression (immunohistochemistry) in polymorphonuclear blood cells with SP alone or with NK1 antagonists; assay type: cell-based, human; conditions: SP 1 μM + antagonist 1 μM; 48 h
Source text: Briefly, heparinized blood from healthy donors was centrifuged so as to separate the various components thereof. Red blood cells remained at the bottom of the tube. Above them was a small white layer composed of the white blood cells and above, on top of the tube, the blood plasma. The layer of white cells was distributed in a culture plate of 24 wells by adding in each the same concentration of blood plasma from the same donor, supplemented with 1% antibiotic-antimycotic (Invitrogen). In each well, approximately 1000 cells (PHF) skin from the dermis were further added, obtained as previously described in Example 2. […] After 48 hours of incubation, cells were collected and embedded in paraffin for expression analysis by immunohistochemical techniques (as described in Example 1).
The expression of TGF molecular markers (anti-TGF 2, SAB4502956) and NF-kB (anti-NF-kB, SAB4501992) using specific antibodies against them were analyzed. All antibodies used were rabbit polyclonal antibodies obtained from Sigma Aldrich and were used at a concentration of 1/1000. All experiments were carried out sixfold.

[8] = Primary tumor cells (colon carcinoma) co-cultured + fibroblast + SP (1 μM) + NK1 antagonist 1 μM
[9] = co-culture with cells isolated from glioma, SP 1 μM + antagonist 1 μM
[10] = co-culture with cells isolated from lung cancer, SP 1 μM + antagonist 1 μM
[11] = co-culture with cells isolated from multiple myeloma, SP 1 μM + antagonist 1 μM
[12] = co-culture with cells isolated from pancreatic carcinoma, SP 1 μM + antagonist 1 μM
[13] = Carcinoma of lung, (Small cell carcinoma in Table 36)
[14] = Carcinoma of lung, Non Small Cell Carcinoma in Table 36
[15] = Carcinoma of thyroid, (Follicular Carcinoma in Table 36)
[16] = Carcinoma of thyroid, (Papillary Carcinoma in Table 36)

Cc1cc(F)ccc1[C@H]1CNCCN1C(=O)N(C)[C@H](C)c1cc(C(F)(F)F)cc(C(F)(F)F)c1 [Vestipitant]
Percentage of fibroblast cells which expressed MMP-3 [1, 8]: 0% | Percentage of fibroblast cells which expressed MMP-7 [1, 8]: 0% | Percentage of fibroblast cells which expressed MMP-9 [1, 8]: 0% | Percentage of fibroblast cells which expressed MMP-11 [1, 8]: 0% | Percentage of fibroblast cells which expressed MMP-13 [1, 8]: 0% | Percentage of fibroblast cells which expressed MMP-14 [1, 8]: 0% | Percentage of fibroblast cells which expressed SPARC [1, 8]: 0% | Percentage of fibroblast cells which expressed TGFα [1, 8]: 0% | Percentage of fibroblast cells which expressed TGFβ1 [1, 8]: 0% | Percentage of fibroblast cells which expressed TGFβ2 [1, 8]: 0% | Percentage of fibroblast cells which expressed TGFβ3 [1, 8]: 0% | Percentage of fibroblast cells which expressed MMP-3 [1, 9]: 0% | Percentage of fibroblast cells which expressed MMP-7 [1, 9]: 0% | Percentage of fibroblast cells which expressed MMP-9 [1, 9]: 0% | Percentage of fibroblast cells which expressed MMP-11 [1, 9]: 0% | Percentage of fibroblast cells which expressed MMP-13 [1, 9]: 0% | Percentage of fibroblast cells which expressed MMP-14 [1, 9]: 0% | Percentage of fibroblast cells which expressed SPARC [1, 9]: 0% | Percentage of fibroblast cells which expressed TGFα [1, 9]: 0% | Percentage of fibroblast cells which expressed TGFβ1 [1, 9]: 0% | Percentage of fibroblast cells which expressed TGFβ2 [1, 9]: 0% | Percentage of fibroblast cells which expressed TGFβ3 [1, 9]: 0% | Percentage of fibroblast cells which expressed MMP-3 [1, 10]: 0% | Percentage of fibroblast cells which expressed MMP-7 [1, 10]: 0% | Percentage of fibroblast cells which expressed MMP-9 [1, 10]: 0% | Percentage of fibroblast cells which expressed MMP-11 [1, 10]: 0% | Percentage of fibroblast cells which expressed MMP-13 [1, 10]: 0% | Percentage of fibroblast cells which expressed MMP-14 [1, 10]: 0% | Percentage of fibroblast cells which expressed SPARC [1, 10]: 0% | Percentage of fibroblast cells which expressed TGFα [1, 10]: 0% | Percentage of fibroblast cells which expressed TGFβ1 [1, 10]: 0% | Percentage of fibroblast cells which expressed TGFβ2 [1, 10]: 0% | Percentage of fibroblast cells which expressed TGFβ3 [1, 10]: 0% | Percentage of fibroblast cells which expressed MMP-3 [1, 11]: 0% | Percentage of fibroblast cells which expressed MMP-7 [1, 11]: 0% | Percentage of fibroblast cells which expressed MMP-9 [1, 11]: 0% | Percentage of fibroblast cells which expressed MMP-11 [1, 11]: 0% | Percentage of fibroblast cells which expressed MMP-13 [1, 11]: 0% | Percentage of fibroblast cells which expressed MMP-14 [1, 11]: 0% | Percentage of fibroblast cells which expressed SPARC [1, 11]: 0% | Percentage of fibroblast cells which expressed TGFα [1, 11]: 0% | Percentage of fibroblast cells which expressed TGFβ1 [1, 11]: 0% | Percentage of fibroblast cells which expressed TGFβ2 [1, 11]: 0% | Percentage of fibroblast cells which expressed TGFβ3 [1, 11]: 0% | Percentage of fibroblast cells which expressed MMP-3 [1, 12]: 0% | Percentage of fibroblast cells which expressed MMP-7 [1, 12]: 0% | Percentage of fibroblast cells which expressed MMP-9 [1, 12]: 0% | Percentage of fibroblast cells which expressed MMP-11 [1, 12]: 0% | Percentage of fibroblast cells which expressed MMP-13 [1, 12]: 0% | Percentage of fibroblast cells which expressed MMP-14 [1, 12]: 0% | Percentage of fibroblast cells which expressed SPARC [1, 12]: 0% | Percentage of fibroblast cells which expressed TGFα [1, 12]: 0% | Percentage of fibroblast cells which expressed TGFβ1 [1, 12]: 0% | Percentage of fibroblast cells which expressed TGFβ2 [1, 12]: 0% | Percentage of fibroblast cells which expressed TGFβ3 [1, 12]: 0% | macrophages expressing EGF [2]: 0% | macrophages expressing MMP-9 [2]: 0% | macrophages expressing VEGF [2]: 0% | cells expressing MMP-3 [3]: 0% | cells expressing MMP-7 [3]: 0% | cells expressing MMP-9 [3]: 0% | cells expressing MMP-11 [3]: 0% | cells expressing MMP-13 [3]: 0% | cells expressing MMP-14 [3]: 0% | cells expressing SPARC [3]: 0% | cells expressing TGF-α [3]: 0% | cells expressing TGF-β1 [3]: 0% | cells expressing TGF-β2 [3]: 0% | cells expressing TGF-β3 [3]: 0% | Endothelial cells co-cultured with tumor cells + SP + Vestipitant ([4]; Carcinoma of Colon): 54 ± 3% | Tumor cells co-cultured with endothelial cells + SP + Vestipitant ([4]; Carcinoma of Colon): 65 ± 6% | Endothelial cells co-cultured with tumor cells + SP + Vestipitant ([4]; Carcinoma of Pancreas): 55 ± 3% | Tumor cells co-cultured with endothelial cells + SP + Vestipitant ([4]; Carcinoma of Pancreas): 47 ± 5% | Endothelial cells co-cultured with tumor cells + SP + Vestipitant ([4]; Carcinoma of breast): 55 ± 4% | Tumor cells co-cultured with endothelial cells + SP + Vestipitant ([4]; Carcinoma of breast): 55 ± 5% | Endothelial cells co-cultured with tumor cells + SP + Vestipitant ([4]; Carcinoma of cervix): 47 ± 4% | Tumor cells co-cultured with endothelial cells + SP + Vestipitant ([4]; Carcinoma of cervix): 47 ± 4% | Endothelial cells co-cultured with tumor cells + SP + Vestipitant ([4]; Carcinoma of endometrial): 56 ± 5% | Tumor cells co-cultured with endothelial cells + SP + Vestipitant ([4]; Carcinoma of endometrial): 47 ± 6% | Endothelial cells co-cultured with tumor cells + SP + Vestipitant [4, 13]: 45 ± 6% | Tumor cells co-cultured with endothelial cells + SP + Vestipitant [4, 13]: 67 ± 5% | Endothelial cells co-cultured with tumor cells + SP + Vestipitant [4, 14]: 45 ± 3% | Tumor cells co-cultured with endothelial cells + SP + Vestipitant [4, 14]: 64 ± 6% | Endothelial cells co-cultured with tumor cells + SP + Vestipitant ([4]; Carcinoma of ovarian): 44 ± 4% | Tumor cells co-cultured with endothelial cells + SP + Vestipitant ([4]; Carcinoma of ovarian): 57 ± 6% | Endothelial cells co-cultured with tumor cells + SP + Vestipitant ([4]; Carcinoma of prostate): 51 ± 6% | Tumor cells co-cultured with endothelial cells + SP + Vestipitant ([4]; Carcinoma of prostate): 48 ± 6% | Endothelial cells co-cultured with tumor cells + SP + Vestipitant ([4]; Carcinoma of stomach): 62 ± 3% | Tumor cells co-cultured with endothelial cells + SP + Vestipitant ([4]; Carcinoma of stomach): 56 ± 4% | Endothelial cells co-cultured with tumor cells + SP + Vestipitant [4, 15]: 46 ± 4% | Tumor cells co-cultured with endothelial cells + SP + Vestipitant [4, 15]: 47 ± 5% | Endothelial cells co-cultured with tumor cells + SP + Vestipitant [4, 16]: 52 ± 5% | Tumor cells co-cultured with endothelial cells + SP + Vestipitant [4, 16]: 55 ± 6% | Endothelial cells co-cultured with tumor cells + SP + Vestipitant ([4]; Fibrosarcoma): 46 ± 7% | Tumor cells co-cultured with endothelial cells + SP + Vestipitant ([4]; Fibrosarcoma): 56 ± 7% | Endothelial cells co-cultured with tumor cells + SP + Vestipitant ([4]; Glioma): 54 ± 3% | Tumor cells co-cultured with endothelial cells + SP + Vestipitant ([4]; Glioma): 47 ± 5% | Endothelial cells co-cultured with tumor cells + SP + Vestipitant ([4]; Hodgkin's Lymphoma): 47 ± 5% | Tumor cells co-cultured with endothelial cells + SP + Vestipitant ([4]; Hodgkin's Lymphoma): 76 ± 5% | Endothelial cells co-cultured with tumor cells + SP + Vestipitant ([4]; Leukemia B): 47 ± 4% | Tumor cells co-cultured with endothelial cells + SP + Vestipitant ([4]; Leukemia B): 53 ± 5% | Endothelial cells co-cultured with tumor cells + SP + Vestipitant ([4]; Leukemia T): 57 ± 4% | Tumor cells co-cultured with endothelial cells + SP + Vestipitant ([4]; Leukemia T): 56 ± 4% | Endothelial cells co-cultured with tumor cells + SP + Vestipitant ([4]; Malignant fibrous histiocytoma): 53 ± 4% | Tumor cells co-cultured with endothelial cells + SP + Vestipitant ([4]; Malignant fibrous histiocytoma): 46 ± 7% | Endothelial cells co-cultured with tumor cells + SP + Vestipitant ([4]; Melanoma): 55 ± 5% | Tumor cells co-cultured with endothelial cells + SP + Vestipitant ([4]; Melanoma): 44 ± 4% | Endothelial cells co-cultured with tumor cells + SP + Vestipitant ([4]; Myeloma): 56 ± 7% | Tumor cells co-cultured with endothelial cells + SP + Vestipitant ([4]; Myeloma): 66 ± 3% | Endothelial cells co-cultured with tumor cells + SP + Vestipitant ([4]; Neuroblastoma): 46 ± 3% | Tumor cells co-cultured with endothelial cells + SP + Vestipitant ([4]; Neuroblastoma): 56 ± 4% | Endothelial cells co-cultured with tumor cells + SP + Vestipitant ([4]; Non-Hodgkin's Lymphoma B): 65 ± 4% | Tumor cells co-cultured with endothelial cells + SP + Vestipitant ([4]; Non-Hodgkin's Lymphoma B): 43 ± 5% | Endothelial cells co-cultured with tumor cells + SP + Vestipitant ([4]; Non-Hodgkin's Lymphoma T): 48 ± 6% | Tumor cells co-cultured with endothelial cells + SP + Vestipitant ([4]; Non-Hodgkin's Lymphoma T): 81 ± 5% | Endothelial cells co-cultured with tumor cells + SP + Vestipitant ([4]; Renal carcinoma): 54 ± 3% | Tumor cells co-cultured with endothelial cells + SP + Vestipitant ([4]; Renal carcinoma): 54 ± 4% | Endothelial cells co-cultured with tumor cells + SP + Vestipitant ([4]; Sarcoma of Ewing): 46 ± 4% | Tumor cells co-cultured with endothelial cells + SP + Vestipitant ([4]; Sarcoma of Ewing): 47 ± 6% | fibroblasts expressing MMP-7 [5]: 0% | fibroblasts expressing MMP-11 [5]: 0% | fibroblasts expressing MMP-14 [5]: 0% | fibroblasts expressing TGF-α [5]: 0% | fibroblasts expressing TGF-β 1 [5]: 0% | fibroblasts expressing TGF-β 2 [5]: 0% | fibroblasts expressing TGF-β 3 [5]: 0% | PHF cells expressing MMP-3 [6]: 0% | PHF cells expressing MMP-7 [6]: 0% | PHF cells expressing MMP-9 [6]: 0% | PHF cells expressing MMP-11 [6]: 0% | PHF cells expressing MMP-13 [6]: 0% | PHF cells expressing MMP-14 [6]: 0% | PHF cells expressing SPARC [6]: 0% | PHF cells expressing TGF-α [6]: 0% | PHF cells expressing TGF-β1 [6]: 0% | PHF cells expressing TGF-β2 [6]: 0% | PHF cells expressing TGF-β3 [6]: 0% | PHF cells expressing MMP-3 [7]: 0% | PHF cells expressing MMP-7 [7]: 0% | PHF cells expressing MMP-9 [7]: 0% | PHF cells expressing MMP-11 [7]: 0% | PHF cells expressing MMP-13 [7]: 0% | PHF cells expressing MMP-14 [7]: 0% | PHF cells expressing SPARC [7]: 0% | PHF cells expressing TGF-α [7]: 0% | PHF cells expressing TGF-β1 [7]: 0% | PHF cells expressing TGF-β2 [7]: 0% | PHF cells expressing TGF-β3 [7]: 0% | polymorphonuclear cells expressing NF-kB (polymorphonuclear cells): 0% | polymorphonuclear cells expressing TGF-β (polymorphonuclear cells): 0%

Source: US20180071317A1, “USE OF AGENTS THAT ALTER THE PERITUMORAL ENVIRONMENT FOR THE TREATMENT OF CANCER” (SERVICIO ANDALUZ DE SALUD, priority 2011, published 2018)
